Experimental findings from PMC10531517, “Rational Design of Novel Peptidomimetics against Influenza A Virus: Biological and Computational Studies” (International Journal of Molecular Sciences, 2023) are described below.

Where a SMILES comes first, the peptide text is derived from it. [ ]: non-standard residue; d: D form. NMeH = CN[C@@H](Cc1c[nH]cn1)C(=O)O; Gly(N-CH2CH2OH) = O=C(O)CNCCO; NMeL = CN[C@@H](CC(C)C)C(=O)O Where only a bound is given, the exact number is not on record here.

For this data set, the system named is A/Parma/24/09 H1N1 virus. To be noted: for EC50: read-out: EC50 (concentration that reduced cytopathic effect by 50%).

Consider `CC(=O)N[C@@H](CO)C(=O)N(C)[C@@H](CC(C)C)C(=O)N[C@@H](CC(=O)O)C(=O)N[C@@H](CS)C(N)=O` [Peptide 4, S(N-Me)LDC] (Ac-S[NMeL]DC-NH2), for which the “SI (ratio of CC50 and EC50)” value is recorded as >2.9 × 10^5; the EC50 was found to be 0.085 nM.
On the same counts, the results for `CC(=O)N[C@@H](CO)C(=O)N[C@@H](CCCCN)C(=O)N(C)[C@@H](Cc1c[nH]cn1)C(=O)N[C@@H](CO)C(N)=O` [Peptide 9, SK(N-Me)HS] (Ac-SK[NMeH]S-NH2) are >1.78 × 10^3 and 0.143 nM.
On the same counts, the results for `CC(=O)N[C@@H](CO)C(=O)N[C@@H](CCCCN)C(=O)N[C@@H](Cc1c[nH]cn1)C(=O)N(CCO)CC(N)=O` [Peptide 18, SKHNhS] (Ac-SKH[Gly(N-CH2CH2OH)]-NH2) are >5 × 10^5 and 0.05 nM.
